This note sets out measurements from PMC3548273, “Rodent Thyroid, Liver, and Fetal Testis Toxicity of the Monoester Metabolite of Bis-(2-ethylhexyl) Tetrabromophthalate (TBPH), a Novel Brominated Flame Retardant Present in Indoor Dust” (Environmental Health Perspectives, 2012).

Structures are written as SMILES.

Common to all, as to format: cell-based
In series [1] the target is T1, PPARα (Mus musculus, UniProt P23204).
T1 construct: gene Ppara; FAO cells stably transfected with mouse PPARα
T1 sequence (P23204 1-468): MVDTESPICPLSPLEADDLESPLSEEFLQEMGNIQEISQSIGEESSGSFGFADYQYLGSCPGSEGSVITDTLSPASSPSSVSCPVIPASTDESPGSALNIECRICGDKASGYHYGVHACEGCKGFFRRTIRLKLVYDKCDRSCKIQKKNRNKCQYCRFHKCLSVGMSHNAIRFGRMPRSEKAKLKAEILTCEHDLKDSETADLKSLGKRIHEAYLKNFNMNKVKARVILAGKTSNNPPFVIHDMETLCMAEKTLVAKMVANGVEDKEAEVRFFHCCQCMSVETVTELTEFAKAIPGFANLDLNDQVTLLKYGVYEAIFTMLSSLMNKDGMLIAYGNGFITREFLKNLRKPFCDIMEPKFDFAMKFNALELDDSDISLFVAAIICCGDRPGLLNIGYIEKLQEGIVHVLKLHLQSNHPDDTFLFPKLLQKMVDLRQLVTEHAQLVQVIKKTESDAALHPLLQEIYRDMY
Kind of series: AOX target gene expression (qPCR) in FAO-PPARα cells at […]. Particulars: fao-pparalpha cells, 0.1 µM.

In series [2] the target is T1, PPARα. The description is as above. The following applies: read-out: AOX target gene expression (qPCR) in FAO-PPARα cells at 100 μM.
The target of series [3] is T2, PPARγ (Mus musculus, UniProt P37238).
T2 construct: gene Pparg
T2 sequence (P37238 1-505): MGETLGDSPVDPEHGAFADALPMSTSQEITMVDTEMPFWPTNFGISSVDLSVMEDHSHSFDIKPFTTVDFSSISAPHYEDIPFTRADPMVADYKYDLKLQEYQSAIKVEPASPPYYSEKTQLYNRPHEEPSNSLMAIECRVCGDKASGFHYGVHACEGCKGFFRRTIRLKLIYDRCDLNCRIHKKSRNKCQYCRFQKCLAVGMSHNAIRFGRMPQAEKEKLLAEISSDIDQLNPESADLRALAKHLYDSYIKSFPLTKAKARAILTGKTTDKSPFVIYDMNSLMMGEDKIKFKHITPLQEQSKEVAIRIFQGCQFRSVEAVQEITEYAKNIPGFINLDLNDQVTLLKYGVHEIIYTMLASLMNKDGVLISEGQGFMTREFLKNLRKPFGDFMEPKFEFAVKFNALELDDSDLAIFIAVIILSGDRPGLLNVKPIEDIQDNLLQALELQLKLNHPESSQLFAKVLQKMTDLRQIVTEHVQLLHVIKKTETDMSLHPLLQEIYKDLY
Kind of series: FABP4 target gene expression (qPCR) in NIH 3T3 L1 cells at […]. The following applies: NIH3T3, read-out: FABP4 target gene expression (qPCR) in NIH 3T3 L1 cells at 100 μM. (Real-time PCR tracks product formation cycle by cycle.)

For series [4], the target named is T1, PPARα. As to the kind of experiment: AOX target gene expression (qPCR) in FAO-PPARα cells.
In series [5] the target is T2, PPARγ. Kind of series: FABP4 target gene expression and lipid accumulation in NIH 3T3 L1 cells, with PPARγ shRNA knockdown.
The target in series [6] is T2, PPARγ. As to the kind of experiment: FABP4 target gene expression (qPCR) in NIH 3T3 L1 cells at […]. The following applies: NIH3T3, read-out: FABP4 target gene expression (qPCR) in NIH 3T3 L1 cells at 100 nM.

With `CC(C)(Sc1ccc(CCN(CCCCC2CCCCC2)C(=O)NC2CCCCC2)cc1)C(=O)O` [GW7647, 2-(4-(2-(1-(cyclohexanebutyl)-3-cyclohexylureido)ethyl)phenylthio)-2-methylpropionic acid], on PPARα [1], the “AOX target gene expression (qPCR) in FAO-PPARα cells at 100 nM” value is recorded as 4.9 ± 0.5 fold increase.

Regarding `CCCCC(CC)COC(=O)c1ccccc1C(=O)O` (stereo not drawn) [MEHP], the values for the fold induction at 100 µM on PPARα [2] and on PPARγ [3] were 5.4 ± 0.6 and 11.5 ± 2.7, respectively.

`CCCCC(CC)COC(=O)c1c(Br)c(Br)c(Br)c(Br)c1C(=O)O` (stereo not drawn) [TBMEHP]: the “AOX target gene expression (qPCR) in FAO-PPARα cells” value at PPARα [4] is “TBMEHP, but not TBPH, significantly up-regulated the expression of both FABP4 and AOX mRNA”. In addition, the “FABP4 target gene expression and lipid accumulation in NIH 3T3 L1 cells, with PP” value on PPARγ [5] was “TBMEHP-induced expression of the PPARγ target gene, FABP4, was significantly impaired in PPARγ-shRNA transduced cells”.

Turning to `CN(CCOc1ccc(CC2SC(=O)NC2=O)cc1)c1ccccn1` (stereo not drawn) [rosiglitazone], the fold induction at 0.1 µM at PPARγ [6] was 6 ± 1.4.
